20 molecules from ChEMBL document CHEMBL4825766, “Structure Activity Relationships for a Series of Eticlopride-Based Dopamine D2/D3 Receptor Bitopic Ligands” (J Med Chem, 2021) can be followed below.

In one assay the target is D(2) dopamine receptor (Homo sapiens, UniProt P14416).
The target of the next assay is D(3) dopamine receptor (Homo sapiens, UniProt P35462).
D(3) dopamine receptor, sequence (P35462 whole entry): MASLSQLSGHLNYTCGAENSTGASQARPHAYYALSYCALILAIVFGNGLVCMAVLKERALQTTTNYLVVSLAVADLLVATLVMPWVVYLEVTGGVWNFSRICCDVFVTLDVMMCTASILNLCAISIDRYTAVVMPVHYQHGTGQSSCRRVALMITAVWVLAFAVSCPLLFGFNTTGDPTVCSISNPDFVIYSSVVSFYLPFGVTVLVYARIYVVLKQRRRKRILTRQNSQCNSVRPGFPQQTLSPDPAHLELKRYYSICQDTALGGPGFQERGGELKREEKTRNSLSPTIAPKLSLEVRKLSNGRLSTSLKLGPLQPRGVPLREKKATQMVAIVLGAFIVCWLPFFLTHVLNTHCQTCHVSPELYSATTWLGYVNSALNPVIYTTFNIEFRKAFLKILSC

D(2) dopamine receptor, sequence (P14416 whole entry): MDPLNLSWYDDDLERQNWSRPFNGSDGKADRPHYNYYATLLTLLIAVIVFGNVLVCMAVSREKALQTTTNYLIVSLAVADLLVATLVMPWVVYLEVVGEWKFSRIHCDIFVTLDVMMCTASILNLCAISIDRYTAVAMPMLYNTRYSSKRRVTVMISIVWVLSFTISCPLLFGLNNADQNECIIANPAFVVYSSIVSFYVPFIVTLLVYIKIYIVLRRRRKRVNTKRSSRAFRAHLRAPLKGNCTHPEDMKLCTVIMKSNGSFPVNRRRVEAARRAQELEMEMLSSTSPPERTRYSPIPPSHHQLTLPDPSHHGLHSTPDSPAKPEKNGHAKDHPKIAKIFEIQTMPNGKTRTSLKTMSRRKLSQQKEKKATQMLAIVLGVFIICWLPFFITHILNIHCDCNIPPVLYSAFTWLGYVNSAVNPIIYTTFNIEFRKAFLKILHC

Turning to `CCc1cc(Cl)c(OC)c(C(=O)NC[C@@H]2CCCN2CCc2c(C)nc3n(c2=O)CCCC3)c1O`, the Ki was determined as 74.4 nM on D(2) dopamine receptor and 50.3 nM on D(3) dopamine receptor. Turning to `CCc1cc(Cl)c(OC)c(C(=O)NC[C@@H]2C[C@@H](OCCCCOCc3ccccc3)CN2)c1O`, the Ki stood at 7.24 nM at D(2) dopamine receptor and 1.01 nM on D(3) dopamine receptor. `CCc1cc(Cl)c(OC)c(C(=O)NC[C@@H]2C[C@@H](OCCCCNC(=O)c3cc4ccccc4[nH]3)CN2)c1O`: the Ki is 2.54 nM on D(2) dopamine receptor and 0.797 nM on D(3) dopamine receptor.

Turning to `CCc1cc(Cl)c(OC)c(C(=O)NC[C@@H]2CCCN2)c1O`, the Ki on D(2) dopamine receptor was 2.26 nM; on D(3) dopamine receptor, 0.431 nM.

On to `CCc1cc(Cl)c(OC)c(C(=O)NC[C@@H]2C[C@@H](OCCCCOc3ccc4c(c3)NC(=O)CC4)CN2)c1O`, for which the Ki on D(2) dopamine receptor was 1.77 nM; at D(3) dopamine receptor, 0.436 nM. For `CCCN1CCC(CNC(=O)c2c(O)c(CC)cc(Cl)c2OC)C1` (centres undefined), the Ki on D(2) dopamine receptor is 66.4 nM; on D(3) dopamine receptor, 14.3 nM. With `CCc1cc(Cl)c(OC)c(C(=O)NC[C@@H]2CCCN2CCCc2ccccc2)c1O`, the Ki came to 162 nM on D(2) dopamine receptor and 20.4 nM on D(3) dopamine receptor. Consider `CCc1cc(Cl)c(OC)c(C(=O)NC[C@@H]2C[C@@H](OCCCc3ccccc3)CN2)c1O`, for which the Ki on D(2) dopamine receptor amounted to 7.42 nM; on D(3) dopamine receptor, 2.63 nM. The corresponding values for `CCc1cc(Cl)c(OC)c(C(=O)NC[C@@H]2CCCN2CCCCNC(=O)c2cc3ccccc3o2)c1O` are 27.6 nM and 15.4 nM. With `CCc1cc(Cl)c(OC)c(C(=O)NC[C@@H]2CCCN2CCCCOc2ccc3c(c2)NC(=O)CC3)c1O`, the Ki stood at 25.3 nM at D(2) dopamine receptor and 6.97 nM at D(3) dopamine receptor. As to `CCc1cc(Cl)c(OC)c(C(=O)NC[C@@H]2CCCN2Cc2ccccc2)c1O`, the Ki on D(2) dopamine receptor was 205 nM; on D(3) dopamine receptor, 28.7 nM. As to `CCc1cc(Cl)c(OC)c(C(=O)NC[C@@H]2CCCN2CC)c1O` [ETICLOPRIDE], the Ki at D(2) dopamine receptor was 0.117 nM. `CCc1cc(Cl)c(OC)c(C(=O)NCC2CCN(C)C2)c1O` (centres undefined): the Ki on D(2) dopamine receptor was 217 nM; on D(3) dopamine receptor it was 100 nM.

`CCc1cc(Cl)c(OC)c(C(=O)NC[C@@H]2C[C@@H](OCCCCO)CN2)c1O`: the Ki came to 1.9 nM at D(2) dopamine receptor and 0.815 nM at D(3) dopamine receptor.

As to `CCCN1CCC[C@H]1CNC(=O)c1c(O)c(CC)cc(Cl)c1OC`, the Ki at D(2) dopamine receptor is 0.688 nM; on D(3) dopamine receptor it was 0.281 nM.

In the case of `CCc1cc(Cl)c(OC)c(C(=O)NC[C@@H]2CCCN2CCCCNC(=O)c2cc3ccccc3[nH]2)c1O`, the Ki was 173 nM on D(2) dopamine receptor and 61.1 nM on D(3) dopamine receptor. As for `CCc1cc(Cl)c(OC)c(C(=O)NCC2CCN(CC)C2)c1O` (centres undefined), the Ki on D(2) dopamine receptor amounted to 38.2 nM; at D(3) dopamine receptor, 19.2 nM. As to `CCCN1C[C@H](OCCCCOc2ccc3c(c2)NC(=O)CC3)C[C@H]1CNC(=O)c1c(O)c(CC)cc(Cl)c1OC`, the values for the Ki at D(2) dopamine receptor and on D(3) dopamine receptor were 2.57 nM and 0.444 nM, respectively. In the case of `CCc1cc(Cl)c(OC)c(C(=O)NC[C@@H]2CCCN2Cc2ccccc2)c1OCc1ccccc1`, the inhibition constant (Ki) at D(2) dopamine receptor came to 2590 nM; on D(3) dopamine receptor, 426 nM. On to `CCc1cc(Cl)c(OC)c(C(=O)NC[C@@H]2C[C@@H](OCCCCNC(=O)c3cc4ccccc4o3)CN2)c1O`, for which the figures for the inhibitory constant (Ki) at D(2) dopamine receptor and on D(3) dopamine receptor were 2.29 nM and 0.493 nM, respectively.
